From paper PMC2946321 (Bioorganic & medicinal chemistry, 2010)

Tests used:
[1] = biological target: T1, human D2(long) (Homo sapiens, UniProt P14416); assay: Forskolin-dependent whole cell adenylyl cyclase inhibition assay; format: cell-based; settings: for effect on quinpirole inhibition of adenylyl cyclase: 10 nM test drug in presence of 10 nM quinpirole; for inhibition of forskolin-dependent cAMP accumulation: 10 nM, human D2long in HEK 293 cells, n = 4; for intrinsic efficacy category at D2 dopamine receptors: based on adenylyl cyclase assay
T1 sequence (P14416 whole entry): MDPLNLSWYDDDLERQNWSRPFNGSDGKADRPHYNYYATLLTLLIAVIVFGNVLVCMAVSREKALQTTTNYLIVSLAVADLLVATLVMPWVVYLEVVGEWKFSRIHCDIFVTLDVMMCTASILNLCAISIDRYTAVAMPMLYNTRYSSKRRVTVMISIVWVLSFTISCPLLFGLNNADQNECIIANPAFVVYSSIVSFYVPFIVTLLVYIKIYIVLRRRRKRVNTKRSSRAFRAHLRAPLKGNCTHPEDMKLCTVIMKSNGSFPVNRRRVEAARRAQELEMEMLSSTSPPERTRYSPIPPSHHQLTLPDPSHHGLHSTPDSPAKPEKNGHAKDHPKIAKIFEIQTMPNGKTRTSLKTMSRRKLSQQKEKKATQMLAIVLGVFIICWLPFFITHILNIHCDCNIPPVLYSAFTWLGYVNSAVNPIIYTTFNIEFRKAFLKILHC

[2] = biological target: T1, human D2(long); assay: Competitive radioligand binding, 125I-IABN, D2 dopamine receptors
[3] = biological target: sigma-1 (σ1) receptors (Cavia porcellus, UniProt Q60492); assay: Sigma-1 receptor binding, [3H]; set-up: species or system guinea pig; settings: read-out: Ki σ1
sigma-1 (σ1) receptors, sequence (Q60492 whole entry): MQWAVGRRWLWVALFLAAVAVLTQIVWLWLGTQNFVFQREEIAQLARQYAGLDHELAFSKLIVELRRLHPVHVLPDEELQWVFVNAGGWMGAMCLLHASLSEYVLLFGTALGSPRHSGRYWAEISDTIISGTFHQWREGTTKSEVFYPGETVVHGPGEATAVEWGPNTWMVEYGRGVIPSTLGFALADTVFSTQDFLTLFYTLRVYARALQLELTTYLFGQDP

[4] = biological target: T2, sigma-2 (σ2) receptors (Rattus norvegicus, UniProt Q5U3Y7); assay: Sigma-2 receptor binding, rat liver membranes; settings: read-out: Ki σ2
T2 sequence (Q5U3Y7 1-176): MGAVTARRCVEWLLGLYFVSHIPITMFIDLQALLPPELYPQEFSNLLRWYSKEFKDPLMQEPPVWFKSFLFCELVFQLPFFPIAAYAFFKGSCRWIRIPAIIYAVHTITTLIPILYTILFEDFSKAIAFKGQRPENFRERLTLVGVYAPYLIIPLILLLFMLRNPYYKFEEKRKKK

[5] = biological target: human D3 (Homo sapiens, UniProt P35462); assay: Competitive radioligand binding, 125I-IABN, D3 dopamine receptors; settings: read-out: Ki D3
human D3, sequence (P35462 whole entry): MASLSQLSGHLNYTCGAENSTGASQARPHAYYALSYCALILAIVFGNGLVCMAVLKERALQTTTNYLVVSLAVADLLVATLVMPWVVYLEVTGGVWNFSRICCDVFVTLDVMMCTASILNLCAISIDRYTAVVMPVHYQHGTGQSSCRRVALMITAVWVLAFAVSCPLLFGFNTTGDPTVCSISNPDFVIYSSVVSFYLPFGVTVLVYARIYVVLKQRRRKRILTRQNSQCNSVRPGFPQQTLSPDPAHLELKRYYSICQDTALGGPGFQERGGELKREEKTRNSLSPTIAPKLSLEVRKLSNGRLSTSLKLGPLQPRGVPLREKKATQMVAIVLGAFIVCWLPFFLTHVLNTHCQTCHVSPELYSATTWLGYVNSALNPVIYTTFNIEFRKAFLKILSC

Row | Compound | effect on quinpirole inhibition of adenylyl cyclase [1] | inhibition of forskolin-dependent cAMP accumulation [1] | intrinsic efficacy category at D2 dopamine receptors [1] | D3:D2 (Ki for D3 receptors/Ki for D2 receptors) [2] | Ki [3] [µM] | Ki [4] [µM] | Ki [5] [µM] | Ki ([2]; read-out: Ki D2) [µM]
1 | COc1cccc2[nH]cc(CN3CCC(O)(c4ccc(I)cc4)CC3)c12.O=C(O)C(=O)O [Compound 6, 4-(4-Iodophenyl)-1-((4-methoxy-1H-indol-3-yl)methyl)piperidin-4-ol oxalate] | able to attenuate the effect of quinpirole | no appreciable increase or decrease | neutral antagonists |  |  |  |  | 
2 | CN1CN(c2ccccc2)C2(CCN(Cc3coc4ccccc34)CC2)C1=O.O=C(O)C(=O)O [Compound 25, 8-(Benzofuran-3-ylmethyl)-3-methyl-1-phenyl-1,3,8-triazaspiro[4.5]decan-4-one oxalate] |  |  |  | 0.3 |  |  |  | 
3 | 1-(Benzo[b]thiophen-2-ylmethyl)-4-(4-bromophenyl)piperidin-4-ol oxalate [Compound 20] |  |  |  | 3.0 | 0.00213 ± 0.00044 | 1.96 ± 0.177 | 0.142 ± 0.027 | 0.0468 ± 0.003
4 | COc1ccc2[nH]cc(CN3CCC(O)(c4ccc(I)cc4)CC3)c2c1.O=C(O)C(=O)O [Compound 7, 4-(4-Iodophenyl)-1-((5-methoxy-1H-indol-3-yl)methyl)piperidin-4-ol oxalate] | able to attenuate the effect of quinpirole | no appreciable increase or decrease | neutral antagonists |  |  |  |  | 
